Reference: patent US7138406B2, “Modulators of the glucocorticoid receptor” (Pfizer, Inc., priority 2002, dated 2006)
pIC50: −log10 of the molar value.

Test system: IL-8 (Interleukin-8) production
Test: glucocorticoid inhibition of IL-1 induced IL-8 production in human chondrosarcoma cells
Assay type: cell-based
Details: SW1353 human chondrosarcoma cells, 20 ng/ml IL-1 beta, 24 hours after addition of IL-1, ELISA; read-out: IC50, inhibitor of IL-8 expression
Experimental: (§1) This assay, the glucocorticoid inhibition of IL-1 (Interleukin-1) induced MMP-1 (Matrix Metalloproteinase-1) and IL-8 (Interleukin-8) production in human chondrosarcoma cells, is conducted as follows: SW1353 human chondrosarcoma cells (obtained from ATCC) from passage 12 through passage 19 are used in a 96 well format assay. Cells are plated at confluence into 96 well plates in DMEM (Dulbecco's Modified Eagle Medium) with 10% fetal bovine serum and incubated at 37° C., 5% CO2. After 24 hours, serum containing media is removed and replaced with 200 ul/well DMEM containing 1 mg/L insulin, 2 g/L lactalbumin hydrosylate, and 0.5 mg/L ascorbic acid and returned to incubation at 37° C., 5% CO2. […] IL-8 production is assessed using the Quantikine human IL-8 ELISA kit from R&D Systems (D8050) on samples diluted 60-fold in RD5P Calibrator Diluent, following the manufacturer's protocol. The percent of the average IL-1 control is determined for the average of each of the triplicate samples following subtraction of the average signal from untreated cells. IC50's are determined from log linear plots of the percent of control versus the concentration of inhibitor. […] MMP-1 production is assessed via the Bio-Trak MMP-1 ELISA kit from Amersham (RPN2610) on 100 ul of neat sample following the manufacturer's protocol. […]
A pIC50 of 8.30 was found for C[C@@H]1C[C@H]2[C@@H]3CCC4=CC(=O)C=C[C@]4(C)[C@@]3(F)[C@@H](O)C[C@]2(C)[C@@]1(O)C(=O)CO [Dexamethasone, (11β,16α)-9-fluoro-11,17,21-trihydroxy-16-methylpregna-1,4-diene-3,20-dione] in this work.

Test system: MMP-1 (Matrix Metalloproteinase-1) production
Test: glucocorticoid inhibition of IL-1 induced MMP-1 production in human chondrosarcoma cells
Assay type: cell-based
Details: SW1353 human chondrosarcoma cells, 20 ng/ml IL-1 beta, 72 hours after IL-1 addition, ELISA; read-out: IC50, inhibitor of MMP1 expression
Experimental: as §1
A pIC50 of 8.30 was found for C[C@@H]1C[C@H]2[C@@H]3CCC4=CC(=O)C=C[C@]4(C)[C@@]3(F)[C@@H](O)C[C@]2(C)[C@@]1(O)C(=O)CO [Dexamethasone, (11β,16α)-9-fluoro-11,17,21-trihydroxy-16-methylpregna-1,4-diene-3,20-dione] in this work.

Test system: not given
Test: not given
Details: not given
A melting point of 190 to 193 °C was found for CC[C@@]12C[C@@](C)(O)[C@](O)(c3ccccc3)C[C@H]1CCc1cc(OCC(C)(C)O)ccc12 [Example 73, (2R,3R,4aR,10aR)-4a-Ethyl-7-(2-hydroxy-2-methyl-propoxy)-3-methyl-2-phenyl-1,2,3,4,4a,9,10,10a-octahydro-phenanthrene-2,3-diol] in this work.
A melting point of 236 to 237 °C was found for CC[C@@]12C[C@](O)(C(C)C)[C@](O)(c3ccccc3)C[C@H]1CCc1cc(O)ccc12 [Example 49] in this work.
A melting point of 209 to 210 °C was found for CC[C@@]12C[C@H](N)[C@](O)(c3ccccc3)C[C@H]1CCc1cc(O)ccc12 [Example 41, (2R,3S,4aR,10aR)-3-Amino-4a-ethyl-2-phenyl-1,2,3,4,4a,9,10,10a-octahydro-phenanthrene-2,7-diol] in this work.
A melting point of 80 to 83 °C was found for CC[C@@]12C[C@H](O)[C@](O)(c3c(F)cccc3F)C[C@H]1CCc1cc(OCc3cccnc3C)ccc12 (hydrate or solvate) [Example 56, (2R,3S,4aR,10aR)-2-(2,6-Difluoro-phenyl)-4a-ethyl-7-(2-methyl-pyridin-3-ylmethoxy)-1,2,3,4,4a,9,10,10a-octahydro-phenanthrene-2,3-diol] in this work.
A melting point of 198 to 200 °C was found for CC[C@@]12C[C@H](O)[C@](O)(c3c(F)cccc3F)C[C@H]1CCc1cc(O)ccc12 [Example 35, (2R,3S,4aR,10aR)-2-(2,6-difluorophenyl)-4a-ethyl-1,2,3,4,4a,9,10,10a-octahydrophenanthrene-2,3,7-triol] in this work.
A melting point of 190 to 191 °C was found for CC[C@@]12C[C@@](C)(O)[C@](O)(c3ccccc3)C[C@H]1CCc1cc(OCC(=O)O)ccc12 [Example 70, (4bR,6R,7R,8aR)-(4b-Ethyl-6,7-dihydroxy-6-methyl-7-phenyl-4b,5,6,7,8,8a,9,10-octahydro-phenanthren-2-yloxy)-acetic acid] in this work.
A melting point of 108 to 110 °C was found for CC[C@@]12C[C@@](C)(O)[C@](O)(c3ccccc3)C[C@H]1CCc1cc(OCc3nnn[nH]3)ccc12 [Example 76, (2R,3R,4aR,10aR)-4a-Ethyl-3-methyl-2-phenyl-7-(1H-tetrazol-5-ylmethoxy)-1,2,3,4,4a,9,10,10a-octahydro-phenanthrene-2,3-diol] in this work.
